In PMC9697446 (International Journal of Molecular Sciences, 2022):
Where “and” joins values, the source holds several entries; their conditions need not be identical. Equal values may be shown once.

Columns and labels:
[1] = test system: isolated rat liver mitochondria; test: Mitochondrial membrane potential and calcium-induced depolarization (safranine O); type: biochemical; details: for ΔΨm, CI (g/m) / ΔΨm, CII (s/r): depolarization after 10-min incubation with 30 µM compound, mean ± SD; for ΔΨm, CI (g/m): complex I substrates (glutamate, malate); for ΔΨm, CII (s/r): complex II substrate (succinate) in the presence of rotenone; for Effect on calcium-induced mitochondrial depolarization at 30 μM: 12.5 µM CaCl2
Experimental: The primary screening of new compounds to determine their effect on the mitochondrial membrane potential formed due to respiratory chain (RC) activity after additions of RC substrates was performed on isolated rat liver mitochondria. It can be used to estimate the probability of the potential toxicity of these compounds. Furthermore, the influence of the compounds on the calcium-dependent depolarization of isolated rat liver mitochondria in this assay made it possible to evaluate the effect on the mitochondrial permeability transition.
Rat liver mitochondria were isolated by conventional differential centrifugation from the livers of adult Wistar strain rats that fasted overnight, pH 7.6 [83, 84]. The mitochondrial protein concentration was determined using a biuret procedure with bovine serum albumin as the standard.
Safranine O (10 µM) was used as a membrane potential probe. Fluorescence intensity at 580 nm (excitation at 520 nm) was measured with a Wallac Victor 3 1420 Multilabel Counter (Perkin Elmer, Turku, Finland). The mitochondrial protein concentration was 0.2 mg/mL. The medium for measurements contained 75 mM sucrose, 225 mM mannitol, 10 mM K-HEPES (pH 7.4), 0.02 mM EGTA, and 1 mM KH2PO4. After a 5-min incubation, 5 mM glutamate/malate or 5 mM succinate in the presence of 0.5 µM rotenone were added to produce the mitochondrial potential. Then, the compounds (30 µM) or the same volume of the vehicle (DMSO) were injected into the mitochondrial suspension. After 15–20 min, 12.5 µM CaCl2 was added to each sample to induce the depolarization of mitochondria, and after 5 min, 0.5 µM CCCP was added for maximum depolarization of the mitochondria. The level of depolarization (ΔΨm) was calculated using the fluorescence value after 10-min incubation with 30 µM of compounds (or vehicle) normalized between the fluorescence measurements after substrate and CCCP addition, where fluorescence intensity at 580 nm was 100% after substrate addition and was 0% after CCCP addition.

[2] = ABTS radical cation scavenging assay; details: 1 h incubation, means ± SEM (n = 3); for IC50: 50% reduction of ABTS radical; for ABTS Scavenging Activity, TEAC Value: Trolox equivalent antioxidant capacity
Experimental: The ABTS assay is based on the direct binding of a model ABTS radical cation (2,2′-azino-bis-(3-ethylbenzothiazoline-6-sulfonate), ABTS^•+) by antioxidants. The measurements were performed as previously described in detail.
The radical scavenging activity was expressed as TEAC values (Trolox equivalent antioxidant capacity) and determined as the ratio between the slopes obtained from the linear correlation of the ABTS radical absorbance with the concentrations of the test compounds and Trolox.
The radical scavenging activity of the compounds was assessed using an ABTS radical decolorization assay. The procedure followed the reported protocol with minor modifications. ABTS (2,2ʹ-azino-bis-(3-ethylbenzothiazoline-6-sulfonic acid) diammonium salt) was purchased from TCI (Tokyo, Japan), while potassium persulfate (di-potassium peroxodisulfate), Trolox (6-hydroxy-2,5,7,8-tetramethylchroman-2-carboxylic acid), catechol, and DMSO were received from Sigma-Aldrich Chemical Co. (St. Louis, MO, USA). The ethanol was HPLC grade. Aqueous solutions were prepared using deionized water.
Trolox was used as the standard reference compound. Catechol was used as the positive control. All test and reference compounds were dissolved in DMSO. The final concentration of DMSO in the reaction mixture was 4% (v/v).
The solution of ABTS radical cation (ABTS^•+) was produced by mixing a 7 mM ABTS stock solution with a 2.45 mM aqueous solution of potassium persulfate in equal quantities and allowing them to react for 12–16 h at room temperature in the dark. At the time of activity determination, the ABTS^•+ solution was diluted with ethanol to adjust it to an absorbance value of about 0.80 ± 0.05 at 734 nm. A fresh working solution of ABTS^•+ was prepared for each assay.
The radical scavenging capacity of the compounds was analyzed by mixing 10 μL of test compound with 240 μL of ABTS^•+ working solution. The reduction in absorbance was measured spectrophotometrically at 734 nm using an xMark microplate UV/VIS spectrophotometer (Bio-Rad, Hercules, CA, USA). The reaction was monitored for an hour at 10 min intervals. Data were given for 1 h of incubation of compounds with ABTS^•+. EtOH blanks were run in each assay. The results were obtained from three replicates of each sample and three independent experiments.
The antioxidant capacity as a Trolox equivalent (TEAC values) was determined as the ratio between the slopes obtained from the linear correlation of concentrations of test compounds and Trolox with absorbance of ABTS radical.

[3] = Oxygen radical absorbance capacity assay (ORAC-FL); details: Trolox equivalent, Trolox = 1; means ± SEM (n = 3)
Source text: The method is based on the measurement of the fluorescence intensity characterizing the degree of destruction of the fluorescence probe under the action of peroxyl radicals.
The peroxyl radical scavenging capacity of the test compounds was characterized in terms of the Trolox equivalent (TE), which is equal to the ratio of the Trolox concentration to the concentration of a test compound when they show equal fluorescence intensities in the assay. The peroxyl radical scavenging capacity of Trolox was set as 1 [67, 68].
2,2´-Azobis(amidinopropane) dihydrochloride (AAPH), (±)-6-hydroxy-2,5,7,8-tetramethylchroman-2-carboxylic acid (Trolox), and fluorescein (FL) were purchased from Sigma-Aldrich. The reaction was carried out at 37 °C in 75 mM K,Na phosphate buffer (pH 7.4), and the final reaction mixture was 200 µL. The test compounds and the Trolox standard were dissolved in DMSO to 10 mM and further diluted in a 75 mM K,Na phosphate buffer (pH 7.4). The final concentrations were 0.1–1 µM for the test compounds and 1–6 µM for the Trolox. The blank was composed of 20 µL of a 75 mM K,Na phosphate buffer (pH 7.4) containing 20% (v/v) DMSO, 120 µL of FL and 60 µL of AAPH, and it was added in each assay. The antioxidant (20 µL) and FL (120 µL, final concentration: 70 nM) solutions were placed in a black 96-well microplate and were preincubated for 15 min at 37 °C. A solution of AAPH (60 µL, final concentration: 12 mM) was then added rapidly using a multichannel pipette. The microplate was immediately placed in the reader, and the fluorescence was recorded every minute for 100 min. The microplate was automatically shaken prior to each reading. The Trolox standard curve was also obtained in each assay. All reactions were carried out in triplicate, and at least three different assays were performed for each sample.
The antioxidant curves (fluorescence vs. time) were first normalized to the curve of the blank (without the antioxidant) corresponding to the same assay, and the area under the fluorescence decay curve (AUC) was calculated. The net AUC corresponding to a sample was calculated by subtracting the AUC corresponding to the blank. Regression equations were calculated by plotting the net AUC against the antioxidant concentration. The ORAC Tolox equivalent value (TE) was obtained by dividing the slope of the latter curve by the slope of the Trolox curve obtained in the same assay. The ability of Trolox to scavenge the peroxyl radical was equal to 1 [64, 65]. […] The data are expressed as means ± SEM.

[4] = test system: Fe3+-induced LP in rat brain homogenate; test: Fe3+-induced lipid peroxidation in rat brain homogenate; type: biochemical; details: for IC50: LP induced by 0.5 mM Fe3+ in rat brain homogenate, mean ± SD, read-out: Inhibition of LP IC50; for Pro-oxidant activity in rat brain homogenate: 10 nM to 30 µM
Experimental: The influence of MB and its conjugates with indole derivatives on Fe^3+-induced lipid peroxidation (LP) in rat brain homogenate was studied over a broad concentration range (from 10 nM to 30 µM).
On the day of the experiment, adult Wistar male rats that fasted overnight were euthanized in a CO2 chamber, followed by decapitation. The procedure was in compliance with the Guidelines for Animal Experiments at the Institute of Physiologically Active Compounds of the Russian Academy of Sciences. The brains were rapidly removed and homogenized in 0.12 M HEPES/0.15M NaCl, pH 7.4 buffer (HBS) ([…]) and used immediately for the assay.
The protein concentrations in rat brain homogenate (RBH) were determined by the biuret assay using bovine serum albumin as the standard.
The effect of the compounds on LP of the RBH was studied at […] in 0.25 mL of RBH (2 mg of protein·mL^−1) in the presence of the compounds or the vehicle (DMSO). Lipid peroxidation was induced by Fe^3+ (0.5 mM Fe(NH4)(SO4)2) as an oxidant.
The reaction mixture was incubated for 30 min at 37 °C, then quenched by adding 0.4 mL of quench medium containing 250 mM HCl and 15% (w/v) trichloroacetic acid. The samples were then centrifuged for 10 min at 10,000× g, and 75 µL of the supernatant was transferred to a 96-well plate. Next, 75 µL of 0.8% (w/v) 2-thiobarbituric acid (TBA) was added. The plate was then sealed, heated at 95 °C for 15 min, cooled to 4 °C, and the absorbance at 530–620 nm was measured using a Wallac Victor 3 1420 Multilabel Counter (Perkin Elmer, Turku, Finland).
All the experiments were performed as four independent runs with different brain homogenate preparations and three repeated probes in each run. The average results for each run were normalized between the positive control with the vehicle and Fe^3+ and negative control with only the vehicle. They were presented as the IC50 ± SD values for the antioxidant activities of the compounds which were calculated using GraphPad Prism 7.00 software (San Diego, CA, USA).

SMILES | ΔΨm, CI (g/m) [1] | ΔΨm, CII (s/r) [1] | IC50 [2] | ABTS Scavenging Activity, TEAC Value [2] | ORAC, TE Value [3] | IC50 [4] | Effect on calcium-induced mitochondrial depolarization at 30 μM [1] | Pro-oxidant activity in rat brain homogenate [4]
CN(C)c1ccc2c(c1)Sc1cc(N(C)C)ccc1N2C(=O)CCn1c2c(c3ccccc31)CCC2 [Compound 4a] | 8 ± 1% | 58 ± 1% | 21000 ± 1400 nM | 0.99 ± 0.08 | 6.8±0.4 | 1240 ± 720 nM | – | –
CN(C)c1ccc2c(c1)Sc1cc(N(C)C)ccc1N2C(=O)CCn1c2c(c3ccccc31)CCCC2 [Compound 4b] | 20 ± 1% | 42 ± 2% | 24300 ± 1500 nM | 0.90 ± 0.04 | 8.6 ± 0.1 | 1120 ± 630 nM | – | –
Cc1ccc2c(c1)c1c(n2CCC(=O)N2c3ccc(N(C)C)cc3Sc3cc(N(C)C)ccc32)CCCC1 [Compound 4c] | 29 ± 1% | 50 ± 3% | 17600 ± 1800 nM | 1.13 ± 0.09 | 5.5 ± 0.4 | 780 ± 350 nM | – | –
COc1ccc2c(c1)c1c(n2CCC(=O)N2c3ccc(N(C)C)cc3Sc3cc(N(C)C)ccc32)CCCC1 [Compound 4d] | 30 ± 4% | 53 ± 1% | 39300 ± 1500 nM | 0.75 ± 0.05 | 4.8 ± 0.3 | 1120 ± 620 nM | – | –
COc1ccc2c(c1)c1c(n2CCC(=O)N2c3ccc(N(C)C)cc3Sc3cc(N(C)C)ccc32)CCC(C)C1 (stereo not drawn) [Compound 4e] | 33 ± 1% | 50 ± 1% | 13700 ± 900 nM | 1.46 and 1.46 ± 0.11 | 13.3 ± 1.3 | 500 ± 360 nM | – | –
CN(C)c1ccc2c(c1)Sc1cc(N(C)C)ccc1N2C(=O)CCn1c2c(c3cc(F)ccc31)CCCC2 [Compound 4f] | 27 ± 1% | 47 ± 1% | 27200 ± 1600 nM | 0.85 ± 0.04 | 5.6 ± 0.4 | 600 ± 320 nM | – | –
CN(C)c1ccc2c(c1)Sc1cc(N(C)C)ccc1N2C(=O)CCn1c2c(c3cc(OC(F)(F)F)ccc31)CCCC2 [Compound 4h] | 15 ± 2% | 25 ± 1% | 17800 ± 1400 nM | 1.10 ± 0.10 | 5.8 ± 0.5 | 460 ± 320 nM | considerably decrease | –
CC1CCc2c(c3cc(OC(F)(F)F)ccc3n2CCC(=O)N2c3ccc(N(C)C)cc3Sc3cc(N(C)C)ccc32)C1 (stereo not drawn) [Compound 4i] | 6 ± 3% | 18 ± 2% | 17200 ± 1200 nM | 1.14 ± 0.11 | 5.1 ± 0.4 | 580 ± 260 nM | completely suppress | –
CN(C)c1ccc2c(c1)Sc1cc(N(C)C)ccc1N2C(=O)CCn1c2c(c3ccccc31)CCCCC2 [Compound 4j] | 21 ± 9% | 66 ± 1% | 16300 ± 1400 nM | 1.15 ± 0.09 | 12.4 ± 0.2 | 620 ± 370 nM | – | –
Cc1ccc2c(c1)c1c(n2CCC(=O)N2c3ccc(N(C)C)cc3Sc3cc(N(C)C)ccc32)CCCCC1 [Compound 4k] | 6 ± 3% | 62 ± 1% | 15400 ± 1300 nM | 1.20 ± 0.13 | 13.4 ± 1.3 | 820 ± 680 nM | – | –
CN(C)c1ccc2c(c1)Sc1cc(N(C)C)ccc1N2C(=O)CCn1c2c(c3ccccc31)CCCCCC2 [Compound 4m] | 23 ± 9% | 57 ± 6% | 16700 ± 1600 nM | 1.11 ± 0.07 | 15.7 ± 1.5 | 1520 ± 790 nM | – | –
Cc1ccc2c(c1)c1c(n2CCC(=O)N2c3ccc(N(C)C)cc3Sc3cc(N(C)C)ccc32)CCCCCC1 [Compound 4n] | 23 ± 6% | 65 ± 1% | 14900 ± 1200 nM | 1.20 ± 0.14 | 10.9 ± 0.6 | 930 ± 680 nM | – | –
CN(C)c1ccc2nc3ccc(=[N+](C)C)cc-3sc2c1 [MB, Methylene blue, reference compound] | 14 ± 7% | 40 ± 9% | – | not detectable | not detectable | 1900 ± 500 nM | completely suppress | no pro-oxidant activity
CN(C)c1ccc2c(c1)Sc1cc(N(C)C)ccc1N2 [MBH2, reference compound] | 0% | 18.2 ± 1.1% | – | not detectable | not detectable | 530 ± 230 nM | – | no pro-oxidant activity
